According to patent US20150216898A1, “COMPOSITION FOR TREATING PSORIASIS” (PSORIASIS+CREAMS SWEDEN AB, priority 2012, published 2015):

System: subjects suffering from psoriasis
Test: Previous treatment(s) of the subjects (anamnesis)
Format: in vivo, human
Conditions: Subject 4; previous treatment supplemented with moisturisers and emollients; responded well at first, more frequent relapses later
Source text: The subject had been diagnosed with psoriasis for nearly 25 years ago and had previously used combinations of local corticosteroids and emollient and moisturizing creams. Further, the subject had also tried photo therapy as well as a topical tar based product (Skillingarydsalvan Original). […] Further, the subject experienced side-effects (e g skin damage, such as skin thinning, changes in pigmentation, easy bruising, stretch marks, redness and dilated surface blood vessels) typically seen with treatment with corticosteroids.
Previous treatment(s): The subject had used corticosteroids such as mometasone furoate, prednicarbate and most recently calcitriol, always supplementing the treatment with moisturisers and emollients.

SMILES	effect of previous treatment over time
C=C1/C(=C\C=C2/CCC[C@]3(C)[C@@H]([C@H](C)CCCC(C)(C)O)CC[C@@H]23)C[C@@H](O)C[C@@H]1O [calcitriol]	no longer as effective
C[C@@H]1C[C@H]2[C@@H]3CCC4=CC(=O)C=C[C@]4(C)[C@@]3(Cl)[C@@H](O)C[C@]2(C)[C@@]1(OC(=O)c1ccco1)C(=O)CCl [mometasone furoate]	no longer as effective
CCOC(=O)O[C@]1(C(=O)COC(=O)CC)CC[C@H]2[C@@H]3CCC4=CC(=O)C=C[C@]4(C)[C@H]3[C@@H](O)C[C@@]21C [prednicarbate]	no longer as effective
